Assay results from patent publication US20260184663A1, “INDENE COMPOUNDS, PHARMACEUTICAL COMPOSITIONS THEREOF, AND THEIR THERAPEUTIC APPLICATIONS” (NucMito Pharmaceuticals co. Ltd., priority 2022, published 2026).
Like-named read-outs stand apart in the source and are kept apart here.

Experiments:
Type in all cases: cell-based
[1] = test system: MDA-MB-231 (breast cancer); test: Antiproliferative activity (CCK-8 cell viability), MDA-MB-231; settings: Homo sapiens, 72 h; for inhibition at 3.3 µM: Compound concentration: 3.3 μM; for inhibition at 10 µM: Compound concentration: 10 μM; for inhibition at 30 µM: Compound concentration: 30 μM
Procedure, shortened: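 In this CCK-8 viability assay, MDA-MB-231 cells maintained in Dulbecco's modified Eagle's medium containing 10% fetal bovine serum were placed in 96-well plates (2,000-5,000 cells/well) and treated with compound for 72 h at 37° C. A 4 h incubation with 10 μL CCK-8 followed, plates were read at 450 nm, and viability was expressed against DMSO vehicle wells across replicates.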

[2] = test system: alpha-smooth muscle actin (α-SMA); test: Inhibition of TGF-β induced expression of alpha-smooth muscle actin (α-SMA) in CFSC cells (western blot); settings: compound at 10 μM, TGF-β (10 ng/mL), 24 hours, band intensity vs TGF-β only
Procedure, shortened: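 CFSC hepatic stellate cells in serum-free DMEM treated 24 h at 37 °C with compound at 10 μM plus TGF-β (10 ng/mL). α-SMA measured by Western blot with β-actin, ECL detection, densitometry. Percent inhibition is decrease in band intensity versus TGF-β-only cells.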

HeLa (cervical cancer) = test: Antiproliferative activity (CCK-8 cell viability), HeLa; settings: Homo sapiens, 72 h; for inhibition at 3.3 µM: Compound concentration: 3.3 μM; for inhibition at 10 µM: Compound concentration: 10 μM; for inhibition at 30 µM: Compound concentration: 30 μM
Procedure, shortened: (§1)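 Cells were seeded at 2,000-5,000/well (HeLa in MEM, HepG2 and SW480 in DMEM, A549 in F-12K, all with 10% FBS) and treated with compound at 3.3, 10 or 30 μM for 72 h at 37° C. CCK-8 was added for 4 h, absorbance was read at 450 nm, and viability was expressed relative to DMSO-treated wells.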

HepG2 (liver cancer) = test: Antiproliferative activity (CCK-8 cell viability), HepG2; settings: Homo sapiens, 72 h; for inhibition at 3.3 µM: Compound concentration: 3.3 μM; for inhibition at 10 µM: Compound concentration: 10 μM; for inhibition at 30 µM: Compound concentration: 30 μM
Procedure, shortened: as §1

[3] = test system: B16F10 (malignant melanoma); test: Antiproliferative activity (CCK-8 cell viability), B16F10; settings: Mus musculus, 72 h, read-out: Antiproliferative activity in cancerous cells, B16F10 (inhibition of cell growth); for inhibition at 3.3 µM: B16-F10, Compound concentration: 3.3 μM; for inhibition at 10 µM: B16-F10, Compound concentration: 10 μM; for inhibition at 30 µM: B16-F10, Compound concentration: 30 μM
Procedure, shortened: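 Attached B16F10 cells in 96-well plates were incubated with compound at 37° C for 72 h, followed by 10 μL CCK-8 reagent per well and a further 4 h incubation. A multi-well plate reader measured absorbance at 450 nm. Percent viability across replicates was calculated against DMSO vehicle-treated cells.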

[4] = test system: A431 (epidermoid carcinoma); test: Antiproliferative activity (CCK-8 cell viability), A431; settings: Homo sapiens, 72 h, read-out: Antiproliferative activity in cancerous cells, A431 (inhibition of cell growth); for inhibition at 3.3 µM: A-431, Compound concentration: 3.3 μM; for inhibition at 10 µM: A-431, Compound concentration: 10 μM; for inhibition at 30 µM: A-431, Compound concentration: 30 μM
Procedure, shortened: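 Cell viability of compound-treated A431 cells was measured with a Cell Counting Kit-8. Each well received 10 μL of CCK-8 after 72 h of compound exposure, followed by 4 h incubation at 37° C. and a 450 nm plate-reader measurement. Percent viability was calculated relative to DMSO controls across replicates.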

SW480 (colon cancer) = test: Antiproliferative activity (CCK-8 cell viability), SW480; settings: Homo sapiens, 72 h; for inhibition at 3.3 µM: Compound concentration: 3.3 μM; for inhibition at 10 µM: Compound concentration: 10 μM; for inhibition at 30 µM: Compound concentration: 30 μM
Procedure, shortened: as §1

[5] = test system: A549 (lung adenocarcinoma); test: Antiproliferative activity (CCK-8 cell viability), A549; settings: Homo sapiens, 72 h; for inhibition at 3.3 µM: Compound concentration: 3.3 μM; for inhibition at 10 µM: Compound concentration: 10 μM; for inhibition at 30 µM: Compound concentration: 30 μM
Procedure, shortened: as §1

[6] = read-out: Antiproliferative activity in cancerous cells, MDA-MB-231 (inhibition of cell growth)
[7] = read-out: Antiproliferative activity in cancerous cells, HELA (inhibition of cell growth)
[8] = read-out: Antiproliferative activity in cancerous cells, HepG2 (inhibition of cell growth)
[9] = read-out: Antiproliferative activity in cancerous cells, SW480 (inhibition of cell growth)
[10] = read-out: Antiproliferative activity in cancerous cells, A549 (inhibition of cell growth)

SMILES	inhibition at 3.3 µM [1, 6] [%]	inhibition at 10 µM [1, 6] [%]	inhibition at 10 µM [2] [%]	inhibition at 3.3 µM (HeLa (cervical cancer); [7]) [%]	inhibition at 10 µM (HeLa (cervical cancer); [7]) [%]	inhibition at 3.3 µM (HepG2 (liver cancer); [8]) [%]	inhibition at 10 µM (HepG2 (liver cancer); [8]) [%]	inhibition at 3.3 µM [3] [%]	inhibition at 10 µM [3] [%]	inhibition at 3.3 µM [4] [%]	inhibition at 10 µM [4] [%]	inhibition at 3.3 µM (SW480 (colon cancer); [9]) [%]	inhibition at 10 µM (SW480 (colon cancer); [9]) [%]	inhibition at 3.3 µM [5, 10] [%]	inhibition at 10 µM [5, 10] [%]	also measured
CC1=C(CC(=O)O)c2c(F)cccc2/C1=C\c1ccc(Oc2ccc(F)cc2)cc1 [C9, (Z)-2-(4-Fluoro-1-(4-(4-fluorophenoxy)benzylidene)-2-methyl-1H-inden-3-yl)-acetic acid]	30 to 50	30 to 50	< 30	< 30	< 30	30 to 50	< 30	≥ 50	≥ 50	30 to 50	30 to 50	< 30	< 30	< 30	< 30	inhibition at 30 µM ([1]; read-out: Antiproliferative activity in cancerous cells, MDA-MB-231): 30 to 50%; inhibition at 30 µM (HeLa (cervical cancer); read-out: Antiproliferative activity in cancerous cells, HELA): < 30%; inhibition at 30 µM (HepG2 (liver cancer); read-out: Antiproliferative activity in cancerous cells, HepG2): 30 to 50%; inhibition at 30 µM (SW480 (colon cancer); read-out: Antiproliferative activity in cancerous cells, SW480): < 30%; inhibition at 30 µM ([5]; read-out: Antiproliferative activity in cancerous cells, A549): < 30%
O=C(O)CC1=C/C(=C/c2cccc(COc3ccccc3)c2)c2ccc(F)cc21 [A8, (Z)-2-(5-Fluoro-1-(3-(phenoxymethyl)benzylidene)-1H-inden-3-yl)acetic acid]	30 to 50	≥ 50	> 80	≥ 50	≥ 50	30 to 50	30 to 50	30 to 50	≥ 50	< 30	30 to 50	< 30	30 to 50	30 to 50	≥ 50	
CC1=C(CCC(=O)O)c2ccccc2/C1=C\c1cccc(COc2ccccc2)c1 [B15, (Z)-3-(2-Methyl-1-(3-(phenoxymethyl)benzylidene)-1H-inden-3-yl)propanoic acid]	< 30	≥ 50	< 30	30 to 50	≥ 50	30 to 50	≥ 50	≥ 50	≥ 50	≥ 50	≥ 50	≥ 50	≥ 50	30 to 50	≥ 50	
COc1ccc2c(c1)/C(=C\c1ccc(Oc3ccc(F)cc3)cc1)C(C)=C2CC(=O)O [C1, (Z)-2-(1-(4-(4-Fluorophenoxy)benzylidene)-6-methoxy-2-methyl-1H-inden-3-yl)-acetic acid]	≥ 50	≥ 50	> 80	≥ 50	≥ 50	< 30	< 30	30 to 50	≥ 50	30 to 50	≥ 50	≥ 50	≥ 50	< 30	< 30	
O=C(O)CC1=C(Cc2ccc(C(F)(F)F)cc2)/C(=C/c2cccc(Oc3ccccc3)c2)c2ccc(F)cc21 [C13, (Z)-2-(5-Fluoro-1-(3-phenoxybenzylidene)-2-(4-(trifluoromethyl)benzyl)-1H-inden-3-yl)acetic acid]	≥ 50	≥ 50	> 80	≥ 50	≥ 50	≥ 50	≥ 50	≥ 50	≥ 50	≥ 50	≥ 50	≥ 50	≥ 50	≥ 50	≥ 50	
C/C(=C1/C=C(CC(=O)O)c2ccccc21)c1ccc(F)cc1 [E14, (E)-2-(1-(1-(4-Fluorophenyl)ethylidene)-1H-inden-3-yl)acetic acid]	30 to 50	30 to 50	< 30	30 to 50	30 to 50	< 30	< 30	< 30	< 30	< 30	< 30	< 30	< 30	< 30	< 30	inhibition at 30 µM [1, 6]: 30 to 50%; inhibition at 30 µM (HeLa (cervical cancer); [7]): ≥ 50%; inhibition at 30 µM (HepG2 (liver cancer); [8]): < 30%; inhibition at 30 µM [3]: 30 to 50%; inhibition at 30 µM [4]: < 30%; inhibition at 30 µM (SW480 (colon cancer); [9]): 30 to 50%; inhibition at 30 µM [5, 10]: 30 to 50%
COc1ccc(Oc2ccc(/C=C3\C(C)=C(CC(=O)O)c4cc(F)ccc43)cn2)cc1 [E1, (E)-2-(5-Fluoro-1-((6-(4-methoxyphenoxy)pyridin-3-yl)methylene)-2-methyl-1H-inden-3-yl)acetic acid]	< 30	< 30	< 30	< 30	< 30	< 30	< 30	< 30	< 30	< 30	< 30	< 30	< 30	< 30	30 to 50	inhibition at 30 µM [1, 6]: ≥ 50%; inhibition at 30 µM (HeLa (cervical cancer); [7]): 30 to 50%; inhibition at 30 µM (HepG2 (liver cancer); [8]): 30 to 50%; inhibition at 30 µM [3]: 30 to 50%; inhibition at 30 µM [4]: < 30%; inhibition at 30 µM (SW480 (colon cancer); [9]): 30 to 50%; inhibition at 30 µM [5, 10]: 30 to 50%
